Data on 34 compounds can be found in patent publication US9206198B2, “Inhibitors of the renal outer medullary potassium channel” (Merck Sharp & Dohme Corp., priority 2012, dated 2015).

The target in this assay is hROMK (hKir1.1) (Homo sapiens (Human), UniProt P48048). The assay is described as follows: Thallium Flux Assay (ROMK channel functional thallium flux assay, FLIPR-Tetra). The class given is cell-based. As to conditions: HEK293 cells stably expressing hROMK. As to the method: Cell Culture Conditions— HEK293 cells stably expressing hROMK (hKir1.1) were grown at 37° C. in a 10% CO2 humidified incubator in complete growth media: Dulbecco's Modified Eagle Medium supplemented with non-essential amino acids, Penicillin/Streptomycin/Glutamine, G418 and FBS. At >80% confluency, aspirate the media from the flask and rinse with 10 mL Calcium/Magnesium-free PBS. Add 5 mL of 1× trypsin (prepared in Ca/Mg Free PBS) to T-225 flask and return flask to 37° C./CO2 incubator for 2-3 minutes. To dislodge the cell, gently bang the side of the flask with your hand. Triturate the cells completely and then transfer the cells to 25 mL complete media. Centrifuge at 1,500 rpm for 6 min followed by resuspension in complete growth media and determine cell concentration. For typical re-seeding, 4E6 cells/T-225 flask will attain >80% confluency in 4 days. Under ideal growth conditions and appropriate tissue culture practices, this cell line is stable for 40-45 passages.
hROMK (hKir1.1), sequence (P48048 whole entry): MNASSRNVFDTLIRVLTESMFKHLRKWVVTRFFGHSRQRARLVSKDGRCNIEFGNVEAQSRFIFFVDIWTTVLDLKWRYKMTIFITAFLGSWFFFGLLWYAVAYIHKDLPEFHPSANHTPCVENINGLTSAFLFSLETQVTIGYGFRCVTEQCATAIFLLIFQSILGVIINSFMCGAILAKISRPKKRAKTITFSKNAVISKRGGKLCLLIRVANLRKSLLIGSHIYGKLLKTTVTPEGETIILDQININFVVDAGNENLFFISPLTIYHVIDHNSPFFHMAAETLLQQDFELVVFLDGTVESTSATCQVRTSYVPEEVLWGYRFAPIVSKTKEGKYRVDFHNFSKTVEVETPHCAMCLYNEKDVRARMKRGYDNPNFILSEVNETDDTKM
FluxOR Kit Components (Invitrogen F10017)
• FluxOR™ Reagent (Component A) • FluxOR™ Assay Buffer (Component B)—10× Concentrate • PowerLoad™ Concentrate (Component C)—100× Concentrate • Probenecid (Component D)—Lyophilized sample is kept at −20° C. Water soluble, 100×after solubilization in 1 mL water. Store at 4° C. • FluxOR™ Chloride-free Buffer (Component E)—5× Concentrate • Potassium sulfate (K2SO4) Concentrate (Component F)—125 mM in water. Store at 4° C. • Thallium sulfate (Tl2SO4) Concentrate (Component G)—50 mM in water. Store at 4° C. • DMSO (dimethyl sulfoxide, Component H)—1 mL (100%) Reagent Preparation: FluxOR Working Solutions • 1000× FluxOR™ Reagent: Reconstitute a vial of component A in 100 μl DMSO; Mix well; Store 10 μl aliquots at −20° C. • 1× FluxOR™ Assay Buffer: Dilute Component B 10-fold with water; Adjust pH to 7.4 with Hepes/NaOH; Filter and store at 4° C. • Probenecid/Assay Buffer: 100 mL of 1× FluxOR™ Assay Buffer; 1 mL of reconstituted component D; Store at 4° C. • Loading Buffer (per microplate): 10 μl 1000× FluxOR™ Reagent; 100 μl component C; 10 mL Probenecid/Assay Buffer • Compound Buffer (per microplate): 20 mL Probenecid/Assay Buffer; 0.3 mM ouabain (10 mM ouabain in water can be stored in amber bottle/aluminum foil at room temperature); Test compound • 1× FluxOR™ Chloride-Free Buffer: Prepare 1× working solution in water. Can be stored at room temperature • Stimulant Buffer (prepared at 5× final concentration in 1× FluxOR™ Chloride-Free Buffer): 7.5 mM Thallium sulfate and 0.75 mM Potassium sulfate (to give a final assay concentration of 3 mM Thallium 0.3 mM Potassium). Store at 4° C. when not in use. If kept sterile, this solution is good for months.
Assay Protocol—The ROMK channel functional thallium flux assay is performed in 384 wells, using the FLIPR-Tetra instrument. HEK-hKir1.1 cells are seeded in Poly-D-Lysine microplates and kept in a 37° C.-10% CO2 incubator overnight. On the day of the experiment, the growth media is replaced with the FluxOR™ reagent loading buffer and incubated, protected from light, at ambient temperature (23-25° C.) for 90 min. The loading buffer is replaced with assay buffer±test compound followed by 30 min incubation at ambient temperature, where the Thallium/Potassium stimulant is added to the microplate.
• 1. Seed HEK-hKir1.1 cells ([…] at 20,000 cells/well) in 384-well PDL coated Microplates • 2. Allow cells to adhere overnight in humidified 37° C./10% CO2 incubator • 3. Completely remove cell growth media from microplate and replace with 25 μl loading buffer • 4. Incubate Microplate at room temperature, protected form light, for 90 min • 5. Remove loading buffer and replace with 25 μl 1× Assay Buffer±test compound. • 6. Incubate microplate at room temperature, protected from light, for 30 min • 7. At FLIPR-Tetra 384: Add stimulant (Thallium/Potassium) solution to microplate and monitor fluorescence. Excitation=400 nm, Emission=460 & 580 nm. Collect data for 10 min.

For `CC1=C(N2CCC3(CCN(C[C@H](O)c4ccc5c(c4C)COC5=O)CC3F)C2=O)COC1=O` (single isomer, unassigned) [Example 27], the IC50 amounted to 210 nM.
Next, `CC1=C(N2CCC3(CCN(C[C@H](O)c4ccc5c(c4C)COC5=O)CC3F)C2=O)COC1=O` (single isomer, unassigned) [Example 28]: 190 nM; `CC1=C(N2C(=O)C3(CCN(C[C@H](O)c4ccc5c(c4C)COC5=O)CC3)CC2C)COC1=O` (single isomer, unassigned) [Example 29]: 70 nM; `Cc1c([C@@H](O)CN2C3CCC2CC2(CC(C)N(C4=CC(=O)OC4)C2=O)C3)ccc2c1COC2=O` (single isomer, unassigned) [Example 40]: 20 nM.
With `Cc1c([C@H](O)CN2C3CCC2CC2(CC(C)N(C4=CC(=O)OC4)C2=O)C3)ccc2c1COC2=O` (single isomer, unassigned) [Example 42] the figure was 100 nM.
`CCC1CC2(CCN(C[C@H](O)c3ccc4c(c3C)COC4=O)CC2)C(=O)N1C1=CC(=O)OC1` (single isomer, unassigned) [Example 67]: the IC50 turned out to be 20 nM.
Compound `CCc1c(C(O)CN2CCC3(CC2)CCN(C2=C(C)C(=O)OC2)C3=O)ccc2c1COC2=O` (single isomer, unassigned) [Example 74] had a half-inhibitory concentration (IC50) of 200 nM.
With `CC1=C(N2CCC3(CCN(CC(O)c4ccc5c(c4C4CC4)COC5=O)CC3)C2=O)COC1=O` (single isomer, unassigned) [Example 77] the figure was 240 nM.
Compound `CC1=C(N2CCC3(CCN(CC(O)c4ccc5c(c4Cl)COC5=O)CC3)C2=O)COC1=O` (single isomer, unassigned) [Example 78] yielded a half-maximal inhibitory concentration (IC50) of 270 nM.
As for `CC1=C(N2CCC3(CCN(CC(O)c4ccc5c(c4F)COC5=O)CC3)C2=O)COC1=O` (single isomer, unassigned) [Example 81], the IC50 was 190 nM.
For `CC1=C(N2CCC3(CCN(C(CO)Cc4ccc5c(c4C)COC5=O)CC3)C2=O)COC1` (single isomer, unassigned) [Example 84A], the IC50 was 60 nM.
Turning to `CC1=C(N2CCC3(CCN(C(CO)Cc4ccc5c(c4C)COC5=O)CC3)C2=O)COC1` (single isomer, unassigned) [Example 84B], the IC50 was determined as 70 nM.
As to `CC1=C(N2CCC3(CCN(C(C)(C)C(O)c4ccc5c(c4C)COC5=O)CC3)C2=O)COC1=O` (single isomer, unassigned) [Example 85A], the IC50 was found to be 120 nM. This IC50 lies about 1.7-fold higher than the previous one.
With `CC1=C(N2CCC3(CCN(C(C)(C)C(O)c4ccc5c(c4C)COC5=O)CC3)C2=O)COC1=O` (single isomer, unassigned) [Example 85B] the figure was 10 nM; with `CC1=C(N2CCC3(CCN(CCc4ccc5c(c4C)COC5=O)CC3)C2=O)COC1=O` [Example 1, 8-(2-(4-methyl-1-oxo-1,3-dihydroisobenzofuran-5-yl)ethyl)-2-(4-methyl-5-oxo-2,5-dihydrofuran-3-yl)-2,8-diazaspiro[4.5]decan-1-one], 10 nM; with `CO[C@@H](CN1CCC2(CC1)C[C@H](C)N(C1=CC(=O)OC1)C2=O)c1ccc2c(c1C)COC2=O` [Example 2], 50 nM.
With `Cc1c([C@@H](O)CN2CCC3(CC2)CC(C)N(C2=CC(=O)OC2)C3=O)ccc2c1COC2=O` (stereo partly drawn) [Example 6, 8-((R)-2-Hydroxy-2-(4-methyl-1-oxo-1,3-dihydroisobenzofuran-5-yl)ethyl)-3-methyl-2-(5-oxo-2,5-dihydrofuran-3-yl)-2,8-diazaspiro[4.5]decan-1-one] the figure was 30 nM; with `Cc1c([C@@H](O)CN2CCC3(CC2)C[C@@H](C)N(C2=CC(=O)OC2)C3=O)ccc2c1COC2=O` [Example 6A], 20 nM.
The compound `CC1=C(N2CCC3(CCN(C[C@@H](O)c4ccc5c(c4C)COC5=O)CC3)C2=O)COC1=O` [Example 8, 8-[(2S)-2-hydroxy-2-(4-methyl-1-oxo-1,3-dihydro-2-benzofuran-5-yl)ethyl]-2-(4-methyl-5-oxo-2,5-dihydrofuran-3-yl)-2,8-diazaspiro[4.5]decan-1-one] came in with an IC50 of 30 nM.
Next, `CC1=C(N2CCC3(CCN(C[C@H](O)c4ccc5c(c4C)COC5=O)CC3O)C2=O)COC1=O` (stereo partly shown) [Example 26]: 230 nM; `Cc1c([C@@H](O)CN2CCC3(CC2)CCN(C2=C(C4CC4)C(=O)OC2)C3=O)ccc2c1COC2=O` [Example 31]: 40 nM.
As for `CC1=C(N2CC(=O)C3(CCN(C[C@H](O)c4ccc5c(c4C)COC5=O)CC3)C2=O)COC1=O` [Example 36], the IC50 was found to be 30 nM. The IC50 values of the last two compounds are within 1.5-fold of each other.
With `CC1=C(N2CCC3(CCN(C[C@@H](O)c4cc5c(cc4C)C(=O)OC5)CC3)C2=O)COC1=O` [Example 37], the concentration for half-maximal inhibition (IC50) came to 30 nM.
Take `CC1=C(N2CCC3(CCN(C[C@H](O)c4cc5c(cc4C)C(=O)OC5)CC3)C2=O)COC1=O` [Example 38]: the midpoint of inhibition, the IC50, lay at 20 nM.
With `Cc1c([C@@H](O)CN2C3CCC2CC2(CC(C)N(C4=CC(=O)OC4)C2=O)C3)ccc2c1COC2=O` (stereo partly shown) [Example 39] the figure was 20 nM; with `Cc1c([C@H](O)CN2C3CCC2CC2(CC(C)N(C4=CC(=O)OC4)C2=O)C3)ccc2c1COC2=O` (stereo partly shown) [Example 41], 240 nM.
With `Cc1c([C@@H](O)CN2CCC3(C=CN(C4=CC(=O)OC4)C3=O)CC2)ccc2c1COC2=O` [Example 44] the figure was 40 nM.
Compound `CC1=C(N2CCC3(CC4CN(C)CC(C3)N4C[C@H](O)c3ccc4c(c3C)COC4=O)C2=O)COC1=O` (stereo partly shown) [Example 45] showed an IC50 of 160 nM.
Next, `CC1=C(N2CCC3(CC4CN(C)CC(C3)N4C[C@@H](O)c3ccc4c(c3C)COC4=O)C2=O)COC1=O` (stereo partly shown) [Example 46]: 140 nM; `CC1=C(N2CCC3(CCN(C[C@H](F)c4ccc5c(c4C)COC5=O)CC3)C2=O)COC1=O` [Example 47, 8-[(2R)-2-fluoro-2-(4-methyl-1-oxo-1,3-dihydro-2-benzofuran-5-yl)ethyl]-2-(4-methyl-5-oxo-2,5-dihydrofuran-3-yl)-2,8-diazaspiro[4.5]decan-1-one]: 40 nM.
Next, `CC1=C(N2CCC3(CCN(C[C@@H](F)c4ccc5c(c4C)COC5=O)CC3)C2=O)COC1=O` [Example 48, 8-[(2S)-2-fluoro-2-(4-methyl-1-oxo-1,3-dihydro-2-benzofuran-5-yl)ethyl]-2-(4-methyl-5-oxo-2,5-dihydrofuran-3-yl)-2,8-diazaspiro[4.5]decan-1-one]: 20 nM; `CO[C@@H](CN1CCC2(CC1)CCN(C1=C(C)C(=O)OC1)C2=O)c1ccc2c(c1C)COC2=O` [Example 49, 8-[(2R)-2-methoxy-2-(4-methyl-1-oxo-1,3-dihydro-2-benzofuran-5-yl)ethyl]-2-(4-methyl-5-oxo-2,5-dihydrofuran-3-yl)-1-oxo-2-aza-8-azoniaspiro[4.5]decane]: 40 nM; `CCO[C@@H](CN1CCC2(CC1)CCN(C1=C(C)C(=O)OC1)C2=O)c1ccc2c(c1C)COC2=O` [Example 50, 8-[(2R)-2-ethoxy-2-(4-methyl-1-oxo-1,3-dihydro-2-benzofuran-5-yl)ethyl]-2-(4-methyl-5-oxo-2,5-dihydrofuran-3-yl)-2,8-diazaspiro[4.5]decan-1-one]: 30 nM.
`CC1=C(N2CCC3(CCN([C@@H](C)[C@H](O)c4ccc5c(c4C)COC5=O)CC3)C2=O)COC1=O` [Example 53A]: 10 nM corresponded to half-maximal inhibition (IC50).
